Reference: article PMC9662648 (Journal of the American Chemical Society, 2022)
Values joined by “and” are separate entries in the source; they are usually repeats but may differ in a detail not shown here. Equal entries are not always repeated. Where two headings read alike, the source gives them in different places. Square brackets hold non-standard residues; d marks the D form. Peptide text beside a SMILES is read from it. * marks the point of attachment. Cit = NC(=O)NCCC[C@H](N)C(=O)O; CH2Cl = ClC*

How the values were obtained:
M^Pro = M^Pro (Severe acute respiratory syndrome coronavirus 2, UniProt P0DTD1); format: biochemical; conditions: for Ki: read-out: M^Pro Ki(app), apparent; for fold less potent M^Pro inhibitor than alkyne parent: probes lacking the alkyne versus their parents; for M^Pro kinact/KI: second-order rate constant for enzyme inactivation
Cathepsin L = Cathepsin L (Homo sapiens, UniProt P07711); assay: Cathepsin L inhibition; format: biochemical; conditions: for IC50: read-out: Cathepsin L IC50
Sequence of Cathepsin L (P07711 114-333): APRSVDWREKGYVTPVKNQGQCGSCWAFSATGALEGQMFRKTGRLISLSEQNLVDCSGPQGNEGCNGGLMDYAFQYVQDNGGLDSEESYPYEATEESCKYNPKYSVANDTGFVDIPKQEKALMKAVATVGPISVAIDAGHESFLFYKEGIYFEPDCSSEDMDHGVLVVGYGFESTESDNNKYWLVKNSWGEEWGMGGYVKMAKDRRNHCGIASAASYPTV

Cathepsin B = Cathepsin B (Homo sapiens, UniProt P07858); assay: Cathepsin B inhibition; format: biochemical; conditions: read-out: Cathepsin B IC50
SARS-CoV2 [1] = format: cell-based; conditions: for EC50: read-out: EC50 for the inhibition of SARS-CoV-2 infection
PL^Pro = PL^Pro (Severe acute respiratory syndrome coronavirus 2, UniProt P0DTD1); conditions: read-out: PL^Pro IC50
OC-43 = assay: Inhibition of OC-43 in A549-hACE2 cells; format: cell-based; conditions: to a lesser extent than SARS-CoV2
SARS-CoV2 pseudovirus = format: cell-based
SARS-CoV-2 = format: cell-based; conditions: relative to the DMSO control
SARS-CoV2 [2] = format: in vivo, K18-hACE2 transgenic mice; conditions: for SARS-CoV2-induced weight loss and lethality: intranasal, 10 mg/kg once daily for 3 days starting 2 h prior to infection; for lung histopathology: intraperitoneal treatment for 5 days; for SARS-CoV-2-induced weight loss and lethality: intraperitoneal, 25 mg/kg twice daily for 5 days, post-infection; for viral RNA loads and titers in lung tissue: versus vehicle control, 72 h treatment
[3] = Weight loss in mock infected mice; conditions: mouse, in vivo
[4] = Pharmacokinetics in BALB-6c mice; conditions: for adverse events or signs of toxicity: at the tested doses
CatL = CatL (Homo sapiens, UniProt P07711); conditions: SM144 5 μM, 24 h, live A549-hACE2 cells
Sequence of CatL (P07711 114-333): as above

SARS-CoV2 [5] = format: cell-based; conditions: Huh7.5 cells, 2 μM, 24 h, MOI 0.05
Cytotoxicity = format: cell-based

In the case of `C#CCOCCC(=O)NC(Cc1ccccc1)C(=O)NC(Cc1ccccc1)C(=O)NC(C=CC(=O)OCC)CC1CCNC1=O` (stereo not drawn) [SM145], the Ki (M^Pro) is reported as 5.3 ± 0.4 µM, the “Cathepsin L kinact/KI” value (Cathepsin L) is reported as “(2.5 ± 0.01)×10^4 M^−1min^−1” and the IC50 (Cathepsin L) is reported as 0.2 ± 0.004 µM. For the same compound, the IC50 (Cathepsin B) was over 50 µM, the “antiviral activity compared with SM141 and SM142” value (SARS-CoV2 [1]) was “significantly lower antiviral activity” and the IC50 (PL^Pro) was over 50 µM.

For `N=C(N)NCCC[C@H](NC(=O)[C@H](Cc1ccccc1)NC(=O)[C@H](N)Cc1ccccc1)C(=O)CCl` [D-FFR-CMK] (H-[dF]-Phe-Arg-CH2Cl), the “fold less potent M^Pro inhibitor than alkyne parent” value (M^Pro) was 4–5 fold and the IC50 (PL^Pro) was 5 ± 0.3 µM.

With `CCOC(=O)C=CC(CC1CCNC1=O)NC(=O)C(Cc1ccccc1)NC(=O)C(Cc1ccccc1)NC(=O)OC(C)(C)C` (stereo not drawn) [SM140] the Ki (M^Pro) was 16 ± 2 µM, the “M^Pro kinact/KI” value (M^Pro) was “(9.0 ± 0.2)×10^3 M^−1min^−1” and the IC50 (Cathepsin B) was over 50 µM. For the same compound, the IC50 (PL^Pro) was over 50 µM.

With `CCOC(=O)C=CC(CC1CCNC1=O)NC(=O)C(Cc1ccccc1)NC(=O)C(Cc1ccc(F)cc1)NC(=O)OC(C)(C)C` (stereo not drawn) [SM142] the Ki (M^Pro) was 10 ± 1 µM, the “M^Pro kinact/KI” value (M^Pro) was “(1.1 ± 0.3)×10^4 M^−1min^−1” and the “Cathepsin L kinact/KI” value (Cathepsin L) was “(1.1 ± 0.01)×10^5 M^−1min^−1”. For the same compound, the IC50 (Cathepsin L) was 0.145 ± 0.014 µM, the IC50 (Cathepsin B) was 40 ± 9 µM and the “fold by which the antiviral EC50 is lower than potency for M^Pro inhibition” value (SARS-CoV2 [1]) was “more than 100 fold”. The EC50 (SARS-CoV2 [1]; A549-hACE2 cells) was 0.0147 µM, the “inhibition of OC-43” value (OC-43) was “inhibits OC-43” and the “additional inhibition of pseudovirus entry in CatL knockdown cells” value (SARS-CoV2 pseudovirus) was “did not show any significant additional inhibitory activity”. For the same compound, the “inhibition of live virus infection in CatL knockdown cells” value (SARS-CoV-2) was “do inhibit live virus infection”, the “SARS-CoV2-induced weight loss and lethality” value (SARS-CoV2 [2]) was “protects mice from SARS-CoV2-induced weight loss and lethality” and the lung histopathology (SARS-CoV2 [2]) was “significant reduction in lung inflammation and improved overall lung pathology”. The “SARS-CoV-2-induced weight loss and lethality” value (SARS-CoV2 [2]) was “protects K18-ACE2 mice from SARS-CoV-2-induced weight loss and lethality”, the “viral RNA loads and titers in lung tissue” value (SARS-CoV2 [2]) was “remarkably lower” and the “weight loss in mock infected mice” value [3] was “no significant weight loss”. The IC50 (PL^Pro) was over 50 µM, the AUCINF_obs ([4]; IV) was 18490 ng·min/mL and the AUClast ([4]; IV) was 0.4 µM·h. The CI_Obs ([4]; IV) was 169 mL/min/kg, the Cmax ([4]; IV) was 400 nM and the MRTINF_obs ([4]; IV) was 114 min. The T1/2 ([4]; IV) was 126 min, the Tmax ([4]; IV) was 4.8 min and the VSS_obs ([4]; IV) was 13.2 L/kg. The “% Bioavailability” value ([4]; PO) was 38% and 37.5%, the AUCINF_obs ([4]; PO) was 20843 ng·min/mL and the AUClast ([4]; PO) was 0.5 µM·h. For the same compound, the Cmax ([4]; PO) was 600 nM, the T1/2 ([4]; PO) was 126 min and the Tmax ([4]; PO) was 4.8 min. For the same compound, the “adverse events or signs of toxicity” value [4] was “no adverse events or signs of toxicity were observed” and the volume of distribution ([4]; calculated) was 13 L/kg.

With `CCOC(=O)C=CC(CC1CCNC1=O)NC(=O)C(Cc1ccc(F)cc1)NC(=O)C(N)Cc1ccccc1` (stereo not drawn) [SM137] the Ki (M^Pro) was 50 ± 6 µM and the “M^Pro kinact/KI” value (M^Pro) was “(1.8 ± 0.2)×10^3 M^−1min^−1”.

With `NC(=O)NCCC[C@H](NC(=O)[C@H](Cc1ccccc1)NC(=O)[C@H](N)Cc1ccccc1)C(=O)CCl` [D-FFCit-CMK] (H-[dF]-Phe-[Cit]-CH2Cl) the “fold less potent M^Pro inhibitor than alkyne parent” value (M^Pro) was 4–5 fold and the IC50 (PL^Pro) was over 50 µM.

With `C#CCOCCC(=O)NC(Cc1ccc(F)cc1)C(=O)NC(Cc1ccccc1)C(=O)NC(C=CC(=O)OCC)CC1CCNC1=O` (stereo not drawn) [SM144] the Ki (M^Pro) was 4.5 ± 0.5 µM, the “M^Pro kinact/KI” value (M^Pro) was “(3.4 ± 0.1)×10^4 M^−1min^−1” and the “Cathepsin L kinact/KI” value (Cathepsin L) was “(6 ± 0.2)×10^4 M^−1min^−1”. The IC50 (Cathepsin L) was 0.22 ± 0.026 µM, the IC50 (Cathepsin B) was over 50 µM and the “antiviral activity compared with SM141 and SM142” value (SARS-CoV2 [1]) was “significantly lower antiviral activity”. The IC50 (PL^Pro) was over 50 µM and the “enrichment of CatL” value (CatL) was over 128 fold.

For `CCOC(=O)C=CC(CC1CCNC1=O)NC(=O)C(Cc1ccccc1)NC(=O)C(N)Cc1ccccc1` (stereo not drawn) [SM141], the Ki (M^Pro) was 9 ± 1 µM, the “M^Pro kinact/KI” value (M^Pro) was “(2.0 ± 0.2)×10^4 M^−1min^−1” and the “Cathepsin L kinact/KI” value (Cathepsin L) was “(1.9 ± 0.5)×10^5 M^−1min^−1”. For the same compound, the “fold more potent for CatL inhibition than M^Pro” value (Cathepsin L; from IC50 and kinact/KI values) was 10 fold, the IC50 (Cathepsin L) was 0.06 ± 0.001 µM and the IC50 (Cathepsin B) was over 50 µM. The “fold by which the antiviral EC50 is lower than potency for M^Pro inhibition” value (SARS-CoV2 [1]) was “more than 100 fold”, the antiviral activity (SARS-CoV2 [1]; A549-hACE2 cells, 2 μM, 24 h, MOI 0.05) was “almost completely blocks viral infection” and the EC50 (SARS-CoV2 [1]; A549-hACE2 cells) was 0.0082 µM. The EC90 (SARS-CoV2 [1]; read-out: EC90 for the inhibition of SARS-CoV-2 infection, A549-hACE2 cells) was 0.0221 µM, the antiviral activity (SARS-CoV2 [5]) was “almost completely blocks viral infection” and the “concentration up to which no notable cytotoxicity is caused” value (Cytotoxicity) was 50000 nM. The “inhibition of OC-43” value (OC-43) was “inhibits OC-43”, the “additional inhibition of pseudovirus entry in CatL knockdown cells” value (SARS-CoV2 pseudovirus) was “did not show any significant additional inhibitory activity” and the “inhibition of live virus infection in CatL knockdown cells” value (SARS-CoV-2) was “do inhibit live virus infection”. The “SARS-CoV2-induced weight loss and lethality” value (SARS-CoV2 [2]) was “protects mice from SARS-CoV2-induced weight loss and lethality”, the lung histopathology (SARS-CoV2 [2]) was “significant reduction in lung inflammation and improved overall lung pathology” and the “SARS-CoV-2-induced weight loss and lethality” value (SARS-CoV2 [2]) was “protects K18-ACE2 mice from SARS-CoV-2-induced weight loss and lethality”. For the same compound, the “viral RNA loads and titers in lung tissue” value (SARS-CoV2 [2]) was “remarkably lower”, the “weight loss in mock infected mice” value [3] was “no significant weight loss” and the IC50 (PL^Pro) was over 50 µM. For the same compound, the “% Bioavailability” value ([4]; IP) was 35.2%, the AUCINF_obs ([4]; IP) was 49620 ng·min/mL and the AUClast ([4]; IP) was 1.6 µM·h. It also gave a Cmax ([4]; IP) of 2700 nM, a T1/2 ([4]; IP) of 48 min and a Tmax ([4]; IP) of 8.4 min. The AUCINF_obs ([4]; IV) was 42350 ng·min/mL, the AUClast ([4]; IV) was 1.3 µM·h and the CI_Obs ([4]; IV) was 71.5 mL/min/kg. For the same compound, the Cmax ([4]; IV) was 3900 nM, the MRTINF_obs ([4]; IV) was 24 min and the T1/2 ([4]; IV) was 48 min. The Tmax ([4]; IV) was 4.8 min, the VSS_obs ([4]; IV) was 1.6 L/kg and the “% Bioavailability” value ([4]; PO) was 5%. For the same compound, the AUCINF_obs ([4]; PO) was 7325 ng·min/mL, the AUClast ([4]; PO) was 0.14 µM·h and the Cmax ([4]; PO) was 200 nM. The Tmax ([4]; PO) was 48 min and the “adverse events or signs of toxicity” value [4] was “no adverse events or signs of toxicity were observed”.

With `CCOC(=O)C=CC(CC1CCNC1=O)NC(=O)C(Cc1ccc(F)cc1)NC(=O)C(Cc1ccccc1)NC(=O)OC(C)(C)C` (stereo not drawn) [SM136] the Ki (M^Pro) was 73 ± 4 µM and the “M^Pro kinact/KI” value (M^Pro) was “(7.7 ± 0.3)×10^2 M^−1min^−1”.
